EC50 data for two compounds are collected here from PubChem BioAssay AID720699 (NMMLSC, 2013).

What is called EC50 is the concentration at which the effect is half-maximal.

The test can be described thus: incubation effect on Rab7 inhibitor curves, late-stage follow-up, mechanism study, biochemical, Rab7 wildtype, bead flow cytometry, two incubation protocols (AID 720699). The settings on record: Rab7 beads, Bodipy-FL-GTP binding.

Each structure is given as a SMILES string.

Turning to `CC1(C)Cc2c(sc(NC(=S)NC(=O)c3cccc(N=[N+]=[N-])c3)c2C(=O)O)CO1`, the EC50 was 1260 nM (protocol A) and 1220 nM (protocol B).

For the compound `CC1(C)Cc2c(sc(NC(=S)NC(=O)c3ccc(N=[N+]=[N-])cc3)c2C(=O)O)CO1`, the EC50 (protocol A) is 219 nM and the concentration for a half-maximal effect (EC50) (protocol B) is 172 nM.
